# Data published in patent US20200237852A1, “Small Molecule Enhancers of Paneth Cell Function and Differentiation” (Massachusetts Institute of Technology, priority 2019, published 2020).
# What was measured:
# Assay type in all cases: cell-based, C57BL/6 mice
# [1] = test system: organoids differentiated under ENR+CV, ENR+CD, or ENR; assay: Western blotting for LYZ in organoids; details: six days in ENR+CV
# Source text: ISC-enriched organoids cultured in 3D Matrigel with ENRCV media were passaged to 24-well plate in 3D Matrigel with ENRCV. At day zero, media were replaced to ENR or ENRCD with or without indicated compounds, and media were replaced every other day. At day six, cells were harvested from Matrigel by mechanical disruption and suspended in basal media. Cell pellets were lysed with Pierce® IP lysis buffer (ThermoFisher, 87787) containing Halt™ Protease Inhibitor Cocktail, EDTA-Free (ThermoFisher, 87785) after 3-minute centrifuge at 300×g at 4° C. Cell extracts were resolved by NuPAGE® SDS-PAGE Gel system (ThermoFisher) and electroblotted onto polyvinylidene difluoride membranes using Criterion™ Blotter (Biorad). The membranes were blocked with 2% Blotting-Grade Blocker (Biorad, 1706404) in TBS-T (50 mM Tris-HCl, 150 mM NaCl, and 0.1% Tween 20, pH 8.0) and then probed with appropriate antibodies. Detection was performed using ECL Select™ Western Blotting Detection Reagent (Amersham, 45-000-999) and ImageQuant LAS4000 (GE Healthcare).
# ENR+CD organoids = assay: Flow cytometry analysis, 3D culture, XPO1 inhibitors; details: 6-day ENR+CD organoids
# Method: ISC-enriched organoids cultured in 3D Matrigel with ENRCV media were passaged to 24-well plate in 3D Matrigel with ENRCV. At day zero, media were replaced to ENRCD with or without indicated compounds, and media were replaced every other day. At day six, cells were washed with basal media, and then harvested from Matrigel by mechanical disruption in TrypLE Express (ThermoFisher, 12605010) to remove Matrigel and dissociate organoids to single cells. After vigorous pipetting and incubation at 37° C. for 20 min, dissociated organoids were strained through a 35 μm cell strainer into a tube (Falcon, 352235). The cell filtrate was centrifuged again at 300×g for 3 min at 4° C. to pellet the cells. Cell pellets were resuspended in FACS buffer (2% FBS in PBS), and then transferred to an ultra low-bind 96-well plate (Corning, 7007). Cells were stained with Zombie-violet viability dye (BioLegend, 423107) at 100× for viability staining and/or antibody staining solution. FITC-conjugated antibody for lysozyme (Dako, […]) and APC-conjugated antibody for CD24 (BioLegend, 138505) were used at 100× dilution. Flow cytometry was performed using an LSR Fortessa (BD; Koch Institute Flow Cytometry Core at MIT). The data were analyzed using FlowJo v10 software.
# [2] = test system: ENR+CD and ENR organoid populations; assay: Population RNA-seq of organoids; details: 3 days of treatment, all media conditions controlled, FDR<0.01
# Source text: To further assess the potential interaction of Wnt agonist CHIR99021 (C) and Notch inhibitor DAPT (D) with XPO1 inhibitors, we carried out an experiment where we assessed bulk organoid population transcriptomes (with RNA-seq) from multiple variations on growth media, XPO1 inhibitor, and duration of treatment (FIG. 12A). To characterize the resulting cell phenotypes, we used aggregate scores of geneset enrichment (based on module scoring as implemented in^7) from the in vivo Paneth and related enteroendocrine cell populations (genesets taken from^6). We see that again for both ENR+CD treated (FIG. 12B) and ENR treated (FIG. 12C) organoid populations, XPO1 inhibition drives enrichment in Paneth cell defining genes, principally at 3 days of treatment. […]
# Population RNA-seq was performed using a derivative of the Smart-Seq2 protocol for single cells^1,2. […] Libraries were pooled post-Nextera and cleaned using Agencourt AMPure SPRI beads with successive 0.7× and 0.8× ratio SPRIs and sequenced with an Illumina 75 Cycle NextSeq500/550v2 kit (Illumina FC-404-2005) with loading density at 2.2 pM, with paired end 35 cycle read structure. Samples were sequenced at an average read depth of 8.44 million reads per sample and a total of 96 samples. […]
# [3] = test system: ISC-enriched organoids in ENR+CD; assay: 384-well secondary screen in ENR+CD, ATP assay; details: 100 nM
# Source text: We again assessed treatment effect size with replicate SSMD (using a difference between well replicates and median assay value for all same-plate control wells—see Materials and Methods, High-throughput screening: 384-well secondary screen format and early vs. full treatment analysis) and hits were considered statistically validated by an SSMD greater than the false-positive-derived cutoffs (βα1=0.89 for 8 replicates with alpha=0.05; see Materials and Methods, High-throughput screening: 384-well secondary screen format and early vs. full treatment analysis) for both LYZ.NS and LYZ.S assays (FIG. 7A). […]
# For 384-well plate high-throughput screening, ISC-enriched organoids were passaged and split to single cells with TyrpLE (Thermo Fisher Scientific) and cultured for 2-3 days in ENR+CVY prior to transfer to a “2.5-D” 384-well plate culture system. […] On the final wash, pellet was resuspended in basal culture medium, the number of organoids counted, and the cell pellet was resuspended in ENR+CD medium at ˜7 clusters/μL. […] On day six, lysozyme secretion and cell viability were assessed using Lysozyme Assay Kit (EnzChek) and CellTiter-Glo 3D Cell Viability Assay (Promega), respectively, according to the manufacturers' protocols. […]
# [4] = test system: ISC-enriched organoids in ENR+CD; assay: 384-well secondary screen in ENR+CD incl. early vs. full treatment, secreted LYZ (LYZ.NS, LYZ.S)
# Source text: We again assessed treatment effect size with replicate SSMD (using a difference between well replicates and median assay value for all same-plate control wells—see Materials and Methods, High-throughput screening: 384-well secondary screen format and early vs. full treatment analysis) and hits were considered statistically validated by an SSMD greater than the false-positive-derived cutoffs (βα1=0.89 for 8 replicates with alpha=0.05; see Materials and Methods, High-throughput screening: 384-well secondary screen format and early vs. full treatment analysis) for both LYZ.NS and LYZ.S assays (FIG. 7A). Per this new cutoff, 10 dose-treatment combinations corresponding to 7 small molecules were chosen as hits, with every passing dose-treatment having a greater than 0 ATP effect size.
# For 384-well plate high-throughput screening, ISC-enriched organoids were passaged and split to single cells with TyrpLE (Thermo Fisher Scientific) and cultured for 2-3 days in ENR+CVY prior to transfer to a “2.5-D” 384-well plate culture system. To prepare for “2.5D” plating, cell-laden Matrigel and media were homogenized via mechanical disruption and centrifuged at 300 g for 3 min at 4° C. Supernatant was removed and the pellet washed and spun in basal culture medium repeatedly until the cloudy Matrigel above the cell pellet was gone. On the final wash, pellet was resuspended in basal culture medium, the number of organoids counted, and the cell pellet was resuspended in ENR+CD medium at ˜7 clusters/μL. 384-well plates were first filled with 10 μL of 70% Matrigel (30% basal media) coating in each well using a Tecan Evo 150 Liquid Handling Deck, and allowed to gel at 37° C. for 5 minutes. Then 30 μL of cell-laden media was plated at the center of each well of 384-well plates with the liquid handler, and the plates were spun down at 50 g for 1 minute to embed organoids on the Matrigel surface. Compound libraries were pinned into prepped cell plates using 50 nL pins into 30 μL media/well. Cells were cultured at 37° C. with 5% CO2 for six days in ENR+CD medium supplemented with the tested compounds with a media change at three days. On day six, lysozyme secretion and cell viability were assessed using Lysozyme Assay Kit (EnzChek) and CellTiter-Glo 3D Cell Viability Assay (Promega), respectively, according to the manufacturers' protocols. Briefly, screen plates were washed 3× with FluoroBrite basal media (2 mM GlutaMAX and 10 mM HEPES in FluoroBrite DMEM (Thermo Fisher Scientific)) using a BioTek 406 plate washer with 10 min incubations followed by a 1 min centrifugation at 200 g to settle media between washes. After removal of the third wash, 30 μL of non-stimulated FluoroBrite basal media was added to each screen well using a Tecan Evo 150 Liquid Handling Deck from a non-stimulated treatment master plate, and plates were incubated for 30 min at 37° C. After 30 minutes, the top 15 μL of media from each well of the screen plate was transferred to a non-stimulated LYZ assay plate containing 15 μL of 20× DQ LYZ assay working solution using a Tecan Evo 150 Liquid Handling Deck. The non-stimulated LYZ assay plate was covered, shaken for 10 min, incubated for 50 min at 37° C., then fluorescence measured (shake 10 s; […]/518 nm) using a Tecan M1000 Plate Reader. After the media transfer to the non-stimulated LYZ assay plate, the remaining media was removed from the screen plate and 30 μL of Stimulated FluoroBrite basal media (supplemented with 10 μM CCh) was added to each screen well using a Tecan Evo 150 Liquid Handling Deck from a stimulated treatment master plate, and plates were incubated for 30 min at 37° C. After 30 minutes, the top 15 μL of media from each well of the screen plate was transferred to a stimulated LYZ assay plate containing 15 μL of 20× DQ LYZ assay working solution using a Tecan Evo 150 Liquid Handling Deck. […]
# [5] = test system: conventional organoid (ENR); assay: 384-well screen in conventional organoid (ENR), secreted LYZ (LYZ.NS, LYZ.S); details: 6-day ENR+treatment, single treatment-dose
SMILES,LYZ abundance on a per-mass protein normalized basis (western blot) [1],Paneth cell representation by flow cytometry (ENR+CD organoids),identity of the majority of significantly up-regulated genes relative to no treatment (DESeq2) [2],"ATP alone, early versus full treatment [3]","validation in secondary screen (SSMD above cutoff for both LYZ.NS and LYZ.S) ([4]; 6-day ENR+CD+treatment vs ENR+CD+DMSO, cutoff 0.89, 8 replicates)","LYZ.NS/ATP, early versus full treatment ([4]; ENR+CD, 100 nM)","LYZ.S/ATP, early versus full treatment ([4]; ENR+CD, 100 nM)","improvement in function, early (first 3 days) versus full 6-day treatment, LYZ.NS and LYZ.S assays ([4]; ENR+CD, maximal validated dose)",LYZ.NS reading versus ENR+DMSO [5]
NC(=O)/C(=C/n1cnc(-c2cc(C(F)(F)F)cc(C(F)(F)F)c2)n1)c1cncnc1 [KPT-8602],appreciably increase LYZ abundance,statistically significant increases in Paneth cell representation,known Paneth cell lineage-defining genes,,,,,,
Cc1[nH]c(/C=C2\C(=O)Nc3ccc(S(=O)(=O)Cc4c(Cl)cccc4Cl)cc32)c(C)c1C(=O)N1CCC[C@@H]1CN1CCCC1 [PHA-665752],,,,no difference in ATP alone,multiple validated doses,significant difference (adj. p<0.05) between early and full,suggestive trend,significantly (adj. p<0.05) lower improvement in function with early treatment versus full,significantly lower LYZ.NS
